The test system of assay [1] is Sindbis virus. The assay is described as follows: Sindbis virus plaque assay. To be noted: African green monkey epithelial cells (Vero), 5 μM, 30 min pre-treatment.
In assay [2] the target is T1, USP14 (Homo sapiens, UniProt P54578).
T1 construct: endogenous in cells; host or cells: Z138
In words: HA-UbVs labeling of USP14. In kind it is cell-based. To be noted: Z138 cells, 1, 5 or 10 μM, 1 hour. The procedure:
(§1) To assay for changes in activity of cellular deubiquitinase enzymes, Z138 and HEK293 cells were lysed in DUB buffer (50 mM Tris pH 7.4, 5 mM MgCl2, 150 mM NaCl) for 10 min at 4° C. The lysates were centrifuged at 20,000 RFC for 10 min and the supernatant was used for DUB labeling. Equal amounts of lysate were incubated with 500 ng of HA-UbVs for 1 hr at room temperature, followed by boiling in reducing sample buffer and resolving by SDS-PAGE. After protein transfer to nitrocellulose membranes, HA immunoblotting was used to detect DUB labeling.
Hemagglutinin-tagged ubiquitin vinyl methyl sulfone (HA-UbVs) acts as a DUB suicide substrate, forming a covalent adduct with active DUB enzymes. Specific cellular DUBs can be identified by anti-HA blotting, as previously shown in various cell types. Changes in specific DUB activities are measurable by monitoring HA-labeling in lysates from control and treated cells. Z138 cells were treated with WP1130 at 1, 5, or 10 μM or AG490 at 250 μM for 1 hours and lysed. 20 μg of clarified supernatant was incubated with 200 nM of HA-UbVS for 1 hr at 37° C. […] An in vitro analysis using cell lysates was performed to investigate direct DUB inhibition by WP1130. Briefly, untreated Z138 cell lysates were incubated with 5 μM WP1130 or vehicle alone for one hour at 37° C., followed by labeling with HA-UbVs.

The subject of assay [3] is DUB activity. The assay is described as follows: Western / HA-UbVS labeling of DUB activity in intact cells. In kind it is cell-based. The procedure:
To assay for changes in activity of cellular deubiquitinase enzymes, leukemic cells were lysed in DUB buffer (50 mM Tris pH 7.4, 5 mM MgCl2, 150 mM NaCl) for 10 min at 4° C. The lysates were centrifuged at 20,000 RCF for 10 min and the supernatant was used for DUB labeling. Equal amounts of lysate were incubated with 500 ng of HA-UbVs for 1 hr at room temperature, followed by boiling in reducing sample buffer and resolving by SDS-PAGE. HA immunoblotting was used to detect DUB labeling.
as §1
Cancer Res, 2010. 70(22): p. […] Blood, 2011. 117(11): p. […] Biochem Pharmacol, 2011. 82(4): p. […] Blood, 2007. 109(8): p. 3470-8.

For assay [4], the system named is CML and melanoma xenografts. The assay is described as follows: Xenograft mouse models of CML and melanoma. In kind it is in vivo.
Assay [5] deals with T2, USP5 (Homo sapiens, UniProt P45974).
T2 construct: endogenous in cells; host or cells: Z138
T2 sequence (P45974 1-858): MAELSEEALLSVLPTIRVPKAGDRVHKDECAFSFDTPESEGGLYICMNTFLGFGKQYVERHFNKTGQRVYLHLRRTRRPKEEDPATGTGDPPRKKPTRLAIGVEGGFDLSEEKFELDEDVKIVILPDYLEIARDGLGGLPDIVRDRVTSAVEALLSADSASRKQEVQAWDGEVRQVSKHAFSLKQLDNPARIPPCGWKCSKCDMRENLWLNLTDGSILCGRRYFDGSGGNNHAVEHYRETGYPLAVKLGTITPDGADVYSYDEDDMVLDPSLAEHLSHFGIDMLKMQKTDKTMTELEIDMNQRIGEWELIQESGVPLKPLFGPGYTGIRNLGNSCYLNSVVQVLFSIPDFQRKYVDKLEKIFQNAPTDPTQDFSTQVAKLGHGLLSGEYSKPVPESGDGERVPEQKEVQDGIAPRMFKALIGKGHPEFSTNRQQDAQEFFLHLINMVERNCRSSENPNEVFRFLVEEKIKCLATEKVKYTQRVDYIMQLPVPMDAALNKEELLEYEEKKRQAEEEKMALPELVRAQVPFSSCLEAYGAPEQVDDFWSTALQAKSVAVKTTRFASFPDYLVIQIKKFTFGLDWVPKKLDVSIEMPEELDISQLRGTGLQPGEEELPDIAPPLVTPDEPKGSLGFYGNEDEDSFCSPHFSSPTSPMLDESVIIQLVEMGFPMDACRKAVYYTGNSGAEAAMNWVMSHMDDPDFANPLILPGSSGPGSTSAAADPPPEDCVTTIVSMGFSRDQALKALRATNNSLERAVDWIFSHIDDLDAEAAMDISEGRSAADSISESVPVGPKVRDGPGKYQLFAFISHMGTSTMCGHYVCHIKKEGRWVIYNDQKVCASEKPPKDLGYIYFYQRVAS
The assay is described as follows: HA-UbVs labeling of USP5. In kind it is cell-based. As to the method: as §1
Hemagglutinin-tagged ubiquitin vinyl methyl sulfone (HA-UbVs) acts as a DUB suicide substrate, forming a covalent adduct with active DUB enzymes. Specific cellular DUBs can be identified by anti-HA blotting, as previously shown in various cell types. Changes in specific DUB activities are measurable by monitoring HA-labeling in lysates from control and treated cells. […]
USP9x was immunoprecipitated from Z138 cell lysates, prepared in DUB buffer and the beads were incubated with vehicle alone or WP1130 for 30 min. Ub-AMC (500 nM) was added to each reaction and fluorescence was monitored every minute for up to 30 minutes. The maximum fluorescence observed at the end of the linear phase of substrate cleavage in control and WP1130 treated DUBs was used as a gauge to estimate DUB activity and % inhibition. […]

The subject of assay [6] is Hsp70. The assay is described as follows: Hsp70 immunoblot. In kind it is cell-based. To be noted: CML cells. (In general: In western blotting, separated proteins are transferred to a membrane and probed.)

This is an account of results in US8809377B2, “Deubiquitinase inhibitors and methods for use of the same” (The Regents of the University of Michigan, priority 2010, dated 2014).

T1 sequence (P54578 whole entry): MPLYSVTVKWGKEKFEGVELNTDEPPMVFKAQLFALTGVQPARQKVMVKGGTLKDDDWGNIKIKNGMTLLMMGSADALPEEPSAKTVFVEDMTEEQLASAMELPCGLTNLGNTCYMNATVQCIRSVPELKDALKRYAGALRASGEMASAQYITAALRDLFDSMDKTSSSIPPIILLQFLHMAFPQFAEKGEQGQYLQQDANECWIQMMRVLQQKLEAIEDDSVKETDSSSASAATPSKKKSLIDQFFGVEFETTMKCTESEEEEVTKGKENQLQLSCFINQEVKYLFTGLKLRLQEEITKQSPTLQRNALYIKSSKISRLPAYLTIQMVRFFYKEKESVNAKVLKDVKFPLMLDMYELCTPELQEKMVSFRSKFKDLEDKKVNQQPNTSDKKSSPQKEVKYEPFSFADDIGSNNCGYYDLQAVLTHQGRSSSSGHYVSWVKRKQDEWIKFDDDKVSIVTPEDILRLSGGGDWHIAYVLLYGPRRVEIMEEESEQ

As to `CCC[C@H](NC(=O)/C(C#N)=C/c1cccc(Br)n1)c1ccccc1` [WP1130], the “Log inhibition by plaque assay” value in assay [1] is reported as 2-2.5 log; in assay [1] (listed as HWP1130), 2 log. In addition, the “HA-UbVS labeling of USP14” value in assay [2] was “dose-dependent and time reduction in the labeling”. For the same compound, the “blocking MNV-1 or DUB activation associated with MNV-1 infection” value in assay [3] (RAW 264.7, 1.25 μM) is “ineffective”. Also, in assay [3] (RAW 264.7, anti-viral effective concentrations), the “DUB activity induced by MNV-1 infection (HA-UbVS)” value is “block DUB activity”. Besides, the “tumor growth in vivo” value in assay [4] is on record as “effectively suppresses tumor growth”. The “reduction in HA labeling of USP5” value in assay [5] (HA-UbVs labeling upon incubation with compound) is given as “about 80%”. For the same compound, in assay [5] (Z138 cells, 1, 5 or 10 μM, 1 hour), the “HA-UbVS labeling of USPS” value is “dose-dependent and time reduction in the labeling”. Also, the Hsp70 protein levels result in assay [6] was “increased”.
